Source: publication PMC4640650 (Science Advances, 2015)

Molecular target: ATP synthase c-subunit (c9 rotor ring) (Mycolicibacterium phlei, UniProt A0A5N5V239)
Experiment: X-ray cocrystal structure
Format: binding

`COc1nc2ccc(Br)cc2cc1[C@@H](c1ccccc1)[C@@](O)(CCN(C)C)c1cccc2ccccc12` [BDQ, Bedaquiline] gave an IC50 of 20 to 25 nM.
